Tests used:
[1] = molecular target: T1, nucleolin/1196NT (Homo sapiens, UniProt P19338); test: EMSA, interference with nucleolin/nucleic acid ligand interaction; assay type: binding; design: key to Activity of Compound A-1 (relative interference), ligand 1196NT: +: least interference by compound A-1; ++++: greatest interference by compound A-1
T1 construct: without the N-terminal acidic stretches domain
Experimental: (§1) The following assays assessed effects of compounds on interactions between nucleolin and nucleic acid ligands capable of forming quadruplex (QP) and hairpin (HP) secondary structures. Nucleic acid ligands tested were a cMyc QP DNA having nucleotide sequence 5′-[…]-3′ (SEQ ID NO: 176) and a HP pre-rRNA region to which nucleolin binds, having the sequence 5′-[…]-3′ (SEQ ID NO: 177). In the assays, recombinant nucleolin (˜250 nM), which was fused to maltose binding protein and had the sequence under accession number NM_005381 without the N-terminal acidic stretches domain, was incubated with each of the two ^32P-labeled nucleic acid ligands (10 or 250 nM). Nucleolin and the nucleic acid ligand were incubated in the presence or absence of a test compound of Formula A-1, B-1, C-6 or C-7 in an incubation buffer (12.5 mM Tris, pH 7.6, 60 mM KCl, 1 mM MgCl2, 0.1 mM EDTA, 1 mM DTT, 5% glycerol, 0.1 mg/ml BSA) for 30 minutes at room temperature. Structures for A-1 and B-1 are shown above and structures for C-6 and C-7 are shown hereafter: [drawing 17] […]
(§2) The assay also was conducted in a filter-binding format. […] Radioactivity was assayed with MicroBeta scintillation counter (Perkin Elmer). Binding curves were constructed and apparent Kd's and Bmax's for the complexes were calculated using the GraphPad Prizm software program (GraphPad Software). […]

[2] = molecular target: T2, nucleolin/6183NT (Homo sapiens, UniProt P19338); test: as above; assay type: binding; design: key to Activity of Compound A-1 (relative interference), ligand 6183NT: +: least interference by compound A-1; ++++: greatest interference by compound A-1
T2 construct: without the N-terminal acidic stretches domain
T2 sequence (P19338 284-710 limits assumed): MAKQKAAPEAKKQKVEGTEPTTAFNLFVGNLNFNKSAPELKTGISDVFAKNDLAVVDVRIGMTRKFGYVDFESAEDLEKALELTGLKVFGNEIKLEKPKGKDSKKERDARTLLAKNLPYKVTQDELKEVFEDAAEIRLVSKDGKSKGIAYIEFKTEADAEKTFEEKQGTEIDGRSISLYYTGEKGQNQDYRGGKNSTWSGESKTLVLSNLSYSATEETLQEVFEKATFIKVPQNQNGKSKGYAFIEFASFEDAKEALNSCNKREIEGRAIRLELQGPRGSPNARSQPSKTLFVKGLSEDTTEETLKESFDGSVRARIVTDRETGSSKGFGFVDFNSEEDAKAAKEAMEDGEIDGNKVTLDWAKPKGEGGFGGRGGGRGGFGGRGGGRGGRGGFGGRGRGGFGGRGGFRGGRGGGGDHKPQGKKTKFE
Experimental: as §1, §2

T1 sequence (P19338 284-710 limits assumed): as above

Structure (SMILES): CN1CCCC1CCNC(=O)c1cn2c3c(c(N4CCC(c5cnccn5)C4)c(F)cc3c1=O)Oc1cc3ccccc3cc1-2 (stereo not shown) [Compound A-1]
- Activity of Compound A-1 (relative interference), ligand 1196NT [1]: +
- IC50 ([1]; ligand 1196NT, read-out: IC50, concentration of Compound A-1 required to dissociate half of the complexed nucleic acid ligand and nucleolin protein): 3 µM
- Activity of Compound A-1 (relative interference), ligand 6183NT [2]: +
- IC50 ([2]; ligand 6183NT, read-out: IC50, concentration of Compound A-1 required to dissociate half of the complexed nucleic acid ligand and nucleolin protein): 3 µM
